Drawing on the supplement of paper PMC10307832, this text covers relative viability for five cell lines.

Holding throughout (assay): relative viability (nuclei count vs DMSO), 5 days (fraction); higher = more cells survive
Compound in the assay “Kobe2602 + Phenformin”: C1=CC(=CC=C1NC(=S)NNC2=C(C=C(C=C2[N+](=O)[O-])C(F)(F)F)[N+](=O)[O-])F [Kobe2602] + N=C(N)NC(=N)NCCc1ccccc1 [Phenformin] (partner 250 µM)
The method, boiled down: (§1)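 Relative viability equals treated-well nuclei counts divided by vehicle-well nuclei counts. Counts came from 4× images of lung cancer cell lines grown in 1536-well plates for 5 days after pin-tool dosing on the day after seeding. Dosing used one drug alone or a fixed anchor-drug dose plus five library-drug doses (not always all listed) in √10 steps, and values are medians of duplicate plates.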

Compound in assay [1]: COc1cc2nccc(Oc3ccc(NC(=O)C4(C(=O)Nc5ccc(F)cc5)CC4)cc3)c2cc1OC [Cabozantinib] + CCNC(=O)c1noc(-c2cc(C(C)C)c(O)cc2O)c1-c1ccc(CN2CCOCC2)cc1 [Luminespib] (partner 0.01 µM)
The method, boiled down:
as §1

Compound in assay [2]: COc1cc2nccc(Oc3ccc(NC(=O)C4(C(=O)Nc5ccc(F)cc5)CC4)cc3)c2cc1OC [Cabozantinib] + C[C@@H](Oc1cc(-c2cnn(C3CCNCC3)c2)cnc1N)c1c(Cl)ccc(F)c1Cl [Crizotinib] (partner 1 µM)
The method, boiled down:
as §1

Compound in the assay “Zosuquidar + Lapatinib”: O[C@@H](COc1cccc2ncccc12)CN1CCN([C@@H]2c3ccccc3[C@@H]3[C@H](c4ccccc42)C3(F)F)CC1 [Zosuquidar] + CS(=O)(=O)CCNCc1ccc(-c2ccc3ncnc(Nc4ccc(OCc5cccc(F)c5)c(Cl)c4)c3c2)o1 [Lapatinib] (partner 2 µM)
The method, boiled down: as §1

Take LOU-NH91: the relative viability in the assay with Kobe2602 + Phenformin (first compound 0.2 µM) was 0.669; in the assay with Kobe2602 + Phenformin (first compound 0.6325 µM), 0.775; with Kobe2602 + Phenformin (first compound 2 µM), 0.639; in the assay with Kobe2602 + Phenformin (first compound 6.325 µM) it was 0.614; in the assay with Kobe2602 + Phenformin (first compound 20 µM), 0.658; in assay [1] (first compound 0.02 µM) it was 0.363. The relative viability in assay [1] (first compound 0.06325 µM) was 0.358; in assay [1] (first compound 0.6325 µM), 0.385; in assay [1] (first compound 2 µM) it was 0.271; in assay [2] (first compound 0.02 µM) it was 0.736; in assay [2] (first compound 0.06325 µM), 0.751; in assay [2] (first compound 0.2 µM) it was 0.531. In addition, the relative viability turned out to be 0.728 in assay [2] (first compound 0.6325 µM); 0.725 in assay [2] (first compound 2 µM); 0.717 with Zosuquidar + Lapatinib (first compound 0.01 µM); 0.851 in the assay with Zosuquidar + Lapatinib (first compound 0.03162 µM); 0.701 in the assay with Zosuquidar + Lapatinib (first compound 0.1 µM); 0.942 with Zosuquidar + Lapatinib (first compound 0.3162 µM). In addition, the relative viability in the assay with Zosuquidar + Lapatinib (first compound 1 µM) stood at 0.751.

Regarding LU99A, the relative viability in the assay with Kobe2602 + Phenformin (first compound 0.2 µM) came out at 0.814; in the assay with Kobe2602 + Phenformin (first compound 0.6325 µM), 0.916; with Kobe2602 + Phenformin (first compound 2 µM), 0.79; with Kobe2602 + Phenformin (first compound 6.325 µM), 0.906; in the assay with Kobe2602 + Phenformin (first compound 20 µM) it was 0.931; in assay [1] (first compound 0.02 µM) it was 0.283. In addition, the relative viability in assay [1] (first compound 0.06325 µM) was determined as 0.268; in assay [1] (first compound 0.2 µM), 0.238; in assay [1] (first compound 0.6325 µM), 0.196; in assay [1] (first compound 2 µM), 0.261; in assay [2] (first compound 0.02 µM), 0.585; in assay [2] (first compound 0.06325 µM) it was 0.607. Also, the relative viability in assay [2] (first compound 0.2 µM) worked out at 0.592; in assay [2] (first compound 0.6325 µM), 0.567; in assay [2] (first compound 2 µM), 0.527; with Zosuquidar + Lapatinib (first compound 0.01 µM), 0.918; with Zosuquidar + Lapatinib (first compound 0.03162 µM), 0.954; with Zosuquidar + Lapatinib (first compound 0.1 µM), 1.11. Also, the relative viability with Zosuquidar + Lapatinib (first compound 0.3162 µM) is 1.05; with Zosuquidar + Lapatinib (first compound 1 µM), 0.982.

Consider LXF-289, for which the relative viability was 0.495 with Kobe2602 + Phenformin (first compound 0.2 µM); 0.577 with Kobe2602 + Phenformin (first compound 0.6325 µM); 0.494 with Kobe2602 + Phenformin (first compound 2 µM); 0.536 with Kobe2602 + Phenformin (first compound 6.325 µM); 0.518 with Kobe2602 + Phenformin (first compound 20 µM); 0.683 in assay [1] (first compound 0.02 µM). Moreover, the relative viability was found to be 0.764 in assay [1] (first compound 0.06325 µM); 0.689 in assay [1] (first compound 0.2 µM); 0.715 in assay [1] (first compound 0.6325 µM); 0.662 in assay [1] (first compound 2 µM); 0.858 in assay [2] (first compound 0.02 µM); 0.857 in assay [2] (first compound 0.06325 µM). Moreover, the relative viability turned out to be 0.392 in assay [2] (first compound 0.2 µM); 0.805 in assay [2] (first compound 0.6325 µM); 0.818 in assay [2] (first compound 2 µM); 0.876 with Zosuquidar + Lapatinib (first compound 0.01 µM); 0.908 with Zosuquidar + Lapatinib (first compound 0.03162 µM); 0.872 in the assay with Zosuquidar + Lapatinib (first compound 0.1 µM). Besides, the relative viability came to 0.913 with Zosuquidar + Lapatinib (first compound 0.3162 µM) and 0.923 with Zosuquidar + Lapatinib (first compound 1 µM).

With NCI-H441, the relative viability came out at 0.801 in the assay with Kobe2602 + Phenformin (first compound 0.2 µM); 0.81 with Kobe2602 + Phenformin (first compound 0.6325 µM); 0.876 with Kobe2602 + Phenformin (first compound 2 µM); 0.814 with Kobe2602 + Phenformin (first compound 6.325 µM); 0.903 with Kobe2602 + Phenformin (first compound 20 µM); 0.326 in assay [1] (first compound 0.02 µM). The relative viability in assay [1] (first compound 0.06325 µM) came out at 0.404; in assay [1] (first compound 0.2 µM) it was 0.306; in assay [1] (first compound 0.6325 µM), 0.324; in assay [1] (first compound 2 µM) it was 0.375; in assay [2] (first compound 0.02 µM), 0.684; in assay [2] (first compound 0.06325 µM), 0.799. Further, the relative viability in assay [2] (first compound 0.2 µM) came to 0.857; in assay [2] (first compound 0.6325 µM), 0.717; in assay [2] (first compound 2 µM) it was 0.668.

Consider NCI-H522, for which the relative viability with Kobe2602 + Phenformin (first compound 0.2 µM) came out at 0.731; in the assay with Kobe2602 + Phenformin (first compound 0.6325 µM), 0.63; with Kobe2602 + Phenformin (first compound 2 µM) it was 0.646; with Kobe2602 + Phenformin (first compound 6.325 µM) it was 0.732; in the assay with Kobe2602 + Phenformin (first compound 20 µM), 0.623; in assay [1] (first compound 0.02 µM) it was 1.15. Besides, the relative viability in assay [1] (first compound 0.06325 µM) turned out to be 1.41; in assay [1] (first compound 0.2 µM) it was 1.56; in assay [1] (first compound 0.6325 µM), 1.07; in assay [1] (first compound 2 µM) it was 1.23.
